Test results from a melting point compilation (Tetko et al.).

SMILES | melting point [°C]
Cc1cc(C=O)cc(C)c1OC(F)F | 56 to 58
c1cnc2c(c1)NCCO2 | 111 to 113
Cc1nc(C(C)(C)O)n[nH]1 | 185 to 187
N#Cc1c(Cl)nc2sccn12 | 174 to 176
CC(C)C(Br)C(=O)N1CCCCC1 (stereo not drawn) | 61 to 63
CN(C)c1ccc(NC(=O)NN)cc1 | 140 to 142
CC(C)(C(N)=S)c1ccccc1 | 99 to 101
Nc1ccc(N2CCC(O)CC2)cc1 | 171 to 173
O=C(O)Cn1cc(C2CC2)nn1 | 183 to 185
O=C(O)C1CCCN1C(=O)c1cc(Cl)cc(Cl)c1 (stereo not drawn) | 162 to 164
NNc1ccc(S(=O)(=O)N2CCCCC2)cn1 | 186 to 188
O=C(O)c1sccc1S(=O)(=O)N1CCC(O)CC1 | 219 to 221
CC(C)(C)OC(=O)Nc1cnsn1 | 93 to 95
NC(=S)Nc1ccc2c(c1)CCC2 | 179 to 181
Cc1nnc(CO)n1C1CC1 | 114 to 116
COC(=O)Cn1cc(C(C)=O)nn1 | 79 to 81
CC(=NO)c1ccc(OCC(F)(F)F)cc1 | 127 to 129
O=Cc1c[nH]c2cc(F)ccc12 | 176 to 178
CNC(=O)c1ccn(-c2ccc(N)cc2)n1 | 152 to 154
COc1ccc2ocnc2c1 | 75 to 77

SMILES | melting point [°C]
NC(=S)Cc1cccc(F)c1 | 69 to 71
Cc1nc(N)c(Cl)cc1Cl | 136 to 138
CN(CCO)C1(CN)CCCCC1 | 73 to 75
O=C(CBr)c1ccc(Cl)s1 | 113 to 115
N#CCCn1cc(C(N)=O)cn1 | 179 to 181
CC(=O)NCCC(N)=S | 99 to 101
Cc1ccc(S(=O)(=O)N(C)c2ccc(O)cc2)cc1 | 137 to 139
COc1cc2c(cc1OC)CN(C(N)=O)CC2 | 198 to 200
O=C(O)c1cc(Br)sc1Br | 179 to 181
CC(Cl)C(=O)Nc1cccc(S(=O)(=O)N(C)C)c1 (stereo not drawn) | 163 to 167
Cc1ccc(S(=O)(=O)N2CCCCC2)cc1S(=O)(=O)Cl | 154 to 156
CC(=O)NS(=O)(=O)Cl | 92 to 94
O=C(O)c1cc2c(cc1O)CCCC2 | 170 to 172
O=C(c1ccc(Br)c([N+](=O)[O-])c1)N1CCOCC1 | 114 to 116
CCCOc1cc2c(cc1C=O)OC(C)C2 (stereo not drawn) | 45 to 47
O=C(O)C1CC2CCC(C1)N2C1CC1 (stereo not drawn) | 156 to 158
COc1cc(C=O)c([N+](=O)[O-])cc1OCC(F)(F)F | 150 to 152
CN(CC(=O)NC(C)(C)C)CC(N)=S | 123 to 125
O=C(O)c1cc(C2CC2)nc2c1cnn2C1CCCCC1 | 210 to 212
Nc1ccc(N2CCOCC2)cc1C(F)(F)F | 74 to 76

SMILES | melting point [°C]
O=C(O)CN1CCCS1(=O)=O | 83 to 85
CC(Cl)C(=O)Nc1cccc(C#N)c1 (stereo not drawn) | 108 to 110
NNc1ccc(S(=O)(=O)NC2CC2)cn1 | 195 to 197
Nc1ccc(OCc2ccccn2)c(Cl)c1 | 91 to 93
N#CCc1ccnc(N)c1 | 104 to 106
OCc1nc2cc(C(F)(F)F)ccc2s1 | 96 to 98
Cn1c(=O)n(C)c2cc(S(=O)(=O)Cl)ccc21 | 176 to 178
O=C(O)c1ccn(C2CCCC2)n1 | 108 to 110
COc1ccc(C=O)cc1C#N | 119 to 121
N#Cc1cccc(CS(=O)(=O)NN)c1 | 139 to 141
ClCc1nc2cc(Cl)ccc2s1 | 99 to 101
O=c1[nH]cc(S(=O)(=O)Cl)c(=O)[nH]1 | 155 to 157
O=C(O)/C=C/c1cc(C(F)(F)F)ccc1Cl | 147 to 149
Nc1ncnc2c(F)cc(Br)cc12 | 343 to 345
COc1cc(OC)c(S(N)(=O)=O)cc1Br | 257 to 259
Cc1ccoc1C(=O)CC#N | 93 to 95
N#CCc1ccc(OCC2CO2)cc1 (stereo not drawn) | 52 to 54
C1CCc2nnc(C3CCCN3)n2CC1 (stereo not drawn) | 91 to 93
O=[N+]([O-])c1cnc2c(c1)CCC2 | 85 to 87

The remaining lines, values ahead:

melting point [°C] | SMILES
204 to 206 | Cc1cc(C(=O)O)c(C)n1-c1ccc2c(c1)OCCO2
151 to 153 | O=C(O)c1cc([N+](=O)[O-])c(F)cc1Cl
83 to 85 | CC1=CC(=O)N(c2ccccc2F)C1=O
196 to 198 | CS(=O)(=O)Nc1ccc(-c2csc(N)n2)cc1
88 to 90 | CC(=O)CCc1ccc(O)c(F)c1
75 to 77 | COC(=O)c1ccc2ccccc2c1O
165 to 167 | CN1CCc2ccc(C(=O)O)cc21
111 to 113 | CCN1C(=C2C=NN(C)C2=N)Nc2ccccc21
88 to 90 | O=c1ccccn1CCO
158 to 160 | Cc1cccc(C(=O)Nc2ccc(O)cc2)c1
93 to 95 | O=C(O)CCCNC(=O)c1ccc(F)cc1
303 to 305 | O=C(Nc1nncs1)c1ccc(O)cc1
167 to 169 | O=C(O)CCc1nc2ccccc2oc1=O
132 to 134 | CCCn1nc(C(=O)O)ccc1=O
89 to 91 | Fc1ccc(NCc2cccnc2)cc1
168 to 170 | O=C(O)c1ccc(Oc2ccc(Cl)cc2Cl)cc1
80 to 82 | Cc1cc(C(=O)CCl)c(C)n1CCc1ccccc1
168 to 170 | Cc1cc(NN)nc2c(C)cccc12
84 to 86 | CC(O)Cc1nc2ccccc2s1 (stereo not drawn)
227 to 229 | CC(=O)Nc1scc(-c2cccs2)c1C(=O)O
188 to 190 | CC(=O)N1CC=C(c2ccc(O)cc2)CC1

melting point [°C] | SMILES
184 to 186 | COc1ccc2c(c1)C=C(C(=O)O)CO2
117 to 119 | CC=Cc1ccc(OCC(=O)O)c(OC)c1
166 to 168 | N#Cc1cccc(C(=O)NN)c1
205 to 207 | Cc1ccc(S(=O)(=O)Nc2cc(Cl)ccc2C(=O)O)cc1
179 to 181 | Cc1c(C(=O)O)c(=O)oc2ccc(Br)cc12
102 to 104 | Cc1ccc(-n2c(C)cc(C=O)c2C)cc1
176 to 178 | Cc1cc(C(=O)O)cc(S(=O)(=O)N2CCC(C)CC2)c1C
167 to 169 | Cc1cc(N2CC(C(=O)O)CC2=O)ccc1Br (stereo not drawn)
142 to 144 | O=C(O)COc1ccc(F)cc1Br
167 to 169 | CN(C(=O)c1ccc(Br)o1)c1ccccc1C(=O)O
80 to 82 | O=C(O)CC1CCc2ccccc2C1 (stereo not drawn)
133 to 135 | O=C(O)C1CC(=O)N(c2cccc(Cl)c2)C1 (stereo not drawn)
151 to 153 | O=C(O)/C=C/c1cccc(OCc2ccccc2)c1
129 to 131 | Cc1nn(-c2ccc(F)cc2F)c(C)c1C=O
61 to 63 | CC(O)c1nc2ccccc2s1 (stereo not drawn)
77 to 79 | CC(C)N1C(=O)C(=O)c2ccccc21
199 to 201 | CS(=O)(=O)Nc1ccc(Cl)cc1C(=O)O
82 to 84 | Clc1nnc(-c2ccccc2)s1
174 to 176 | O=c1[nH]c2ccccc2c(=O)n1CCCO
168 to 170 | CCOC(=O)c1sc2nc(CCl)nc(Cl)c2c1C
175 to 186 | O=C(O)/C=C/c1ccc(Br)c(Cl)c1

melting point [°C] | SMILES
158 to 160 | O=C(O)CNC(=O)c1ccc2c(c1)OCO2
171 to 173 | O=C(CCCl)Nc1ccc([N+](=O)[O-])cc1
64 to 66 | CCOC(=O)c1cc(C)nc2onc(C)c12
150 to 152 | O=C(O)CCNS(=O)(=O)c1ccc(OC(F)(F)F)cc1
77 to 79 | Nc1ccc2c(cnn2C(F)F)c1
150 to 152 | CN(CC(=O)O)S(=O)(=O)C=Cc1ccccc1
167 to 169 | Cc1[nH]ccc1C(=O)O
113 to 115 | O=C(O)CSCc1cc(-c2cccs2)on1
209 to 211 | O=C(O)c1c[nH]cc1-c1ccc([N+](=O)[O-])cc1
115 to 117 | CCCc1ccc(-c2csc(N)n2)cc1
104 to 106 | CCn1cc(C=O)c2ccccc21
182 to 184 | N#Cc1ccccc1Sc1ccc(C(=O)O)cc1
195 to 197 | Cc1cc(NS(=O)(=O)c2cccc(C(=O)O)c2)no1
99 to 101 | CCOC(=O)c1nn(-c2ccccc2)cc1C=O
168 to 170 | O=C(O)C1CCCCC1c1nc2ccccc2s1 (stereo not drawn)
94 to 96 | CCOC(=O)c1cc(C)nc(-c2ccccc2)n1
183 to 185 | O=C(O)c1cnn(-c2ccccc2)n1
144 to 146 | Cc1ccc(N)cc1S(=O)(=O)Nc1ccc(Cl)cc1
255 to 257 | Nc1noc(-c2ccc(Cl)cc2)n1
212 to 214 | O=C(O)c1ccc(S(=O)(=O)CC(F)F)cc1
229 to 231 | O=C1NC(=O)C2(CCc3ccccc32)N1 (stereo not drawn)

melting point [°C] | SMILES
149 to 151 | N#CCC(=O)c1cccc([N+](=O)[O-])c1
119 to 120 | O=c1cc(CCl)c2c(ccc3ccccc32)o1
174 to 176 | Cc1nc2c(cnn2C(C)C)c(=O)[nH]1
185 to 187 | N#Cc1ccc(C(=O)NNC(=O)CCl)cc1
279 to 281 | Cc1nc(-c2cccnc2)[nH]c(=O)c1CCC(=O)O
229 to 231 | O=C(O)c1csc2cncn12
163 to 165 | O=C(O)c1cc(I)c(F)cc1F
231 to 233 | Cc1cc(-c2ccccc2)nc2cc(O)nn12
75 to 77 | CN(C(N)=O)c1ccccc1
74 to 76 | O=S(=O)(Cl)c1ccccc1-c1ccno1
255 to 257 | O=C(O)C1(Cc2nc3ccccc3[nH]2)CCCC1
128 to 130 | NCc1cccc(NC(=O)c2ccncc2)c1
157 to 159 | CC(C)(C)c1ccc2cc(C(=O)O)[nH]c2c1
119 to 121 | CCN(CC)S(=O)(=O)c1ccc(-c2ccc(C=O)o2)cc1
104 to 106 | COc1ccccc1-c1cc(N)n(-c2ccc(C)cc2)n1
55 to 57 | Cc1cccc(-c2[nH]ncc2C=O)c1
209 to 211 | O=C(O)CCN1C(=O)c2ccc(Br)cc2C1=O
162 to 164 | CN(c1cccc(Cl)c1)S(=O)(=O)c1cccc(C(=O)O)c1
285 to 287 | Cc1ccc(NS(=O)(=O)c2ccc(C(=O)O)cc2)cc1
148 to 150 | Cc1nn(CCO)c(C(F)F)c1C(=O)O
152 to 154 | NNC(=O)COc1ccccc1O
